Measured values published in PMC12028158, “Synthesis and In Vitro Evaluation of the Anticancer Effect of Novel Phosphonium Vindoline Derivatives” (International Journal of Molecular Sciences, 2025).
Like-named read-outs stand apart in the source and are kept apart here.

Key:
Assay type in all cases: cell-based
[1] = test system: K-562; experiment: NCI60 five-dose screen; conditions: Homo sapiens, K562
[2] = test system: SR; experiment: NCI60 five-dose screen; conditions: Homo sapiens
[3] = test system: NCI-H322M; experiment: NCI60 five-dose screen; conditions: Homo sapiens
[4] = test system: NCI-H522; experiment: NCI60 five-dose screen; conditions: Homo sapiens, NCI-H522
[5] = test system: HCT-116; experiment: NCI60 five-dose screen; conditions: Homo sapiens, HCT-116
[6] = test system: SF-268; experiment: NCI60 five-dose screen; conditions: Homo sapiens, SF-268
[7] = test system: SF-295; experiment: NCI60 five-dose screen; conditions: Homo sapiens, SF-295
[8] = test system: U251; experiment: NCI60 five-dose screen; conditions: Homo sapiens, U-251
[9] = test system: M14; experiment: NCI60 five-dose screen; conditions: Homo sapiens, M14
[10] = test system: MDA-MB-435; experiment: NCI60 five-dose screen; conditions: Homo sapiens, MDA-MB-435
[11] = test system: IGROV1; experiment: NCI60 five-dose screen; conditions: Homo sapiens, IGROV-1
[12] = test system: NCI/ADR-RES; experiment: NCI60 five-dose screen; conditions: Homo sapiens
[13] = test system: SK-OV-3; experiment: NCI60 five-dose screen; conditions: Homo sapiens, SK-OV-3
[14] = test system: ACHN; experiment: NCI60 five-dose screen; conditions: Homo sapiens
[15] = test system: SN12C; experiment: NCI60 five-dose screen; conditions: Homo sapiens
[16] = test system: TK-10; experiment: NCI60 five-dose screen; conditions: Homo sapiens, TK-10
[17] = test system: PC-3; experiment: NCI60 five-dose screen; conditions: Homo sapiens, PC-3
[18] = test system: Non-small Cell Lung Cancer panel; experiment: NCI60 five-dose screen, panel mean; conditions: Homo sapiens, read-out: GI50 Mean
[19] = test system: Colon Cancer panel; experiment: NCI60 five-dose screen, panel mean; conditions: Homo sapiens, read-out: GI50 Mean
[20] = test system: Melanoma panel; experiment: NCI60 five-dose screen, panel mean; conditions: Homo sapiens, read-out: GI50 Mean
[21] = test system: Prostate Cancer panel; experiment: NCI60 five-dose screen, panel mean; conditions: Homo sapiens, read-out: GI50 Mean
[22] = test system: 60 human tumor cell lines (NCI60); experiment: NCI60 five-dose screen, overall mean
[23] = test system: CCRF-CEM; experiment: NCI60 one-dose screen; conditions: Homo sapiens, read-out: Growth percent
[24] = test system: K-562; experiment: NCI60 one-dose screen; conditions: Homo sapiens, K562, read-out: Growth percent
[25] = test system: A549/ATCC; experiment: NCI60 one-dose screen; conditions: Homo sapiens, A549, read-out: Growth percent
[26] = test system: NCI-H522; experiment: NCI60 one-dose screen; conditions: Homo sapiens, NCI-H522, read-out: Growth percent
[27] = test system: HCC-2998; experiment: NCI60 one-dose screen; conditions: Homo sapiens, HCC 2998, read-out: Growth percent
[28] = test system: KM12; experiment: NCI60 one-dose screen; conditions: Homo sapiens, KM12, read-out: Growth percent
[29] = test system: SW-620; experiment: NCI60 one-dose screen; conditions: Homo sapiens, SW-620, read-out: Growth percent
[30] = test system: SF-539; experiment: NCI60 one-dose screen; conditions: Homo sapiens, SF-539, read-out: Growth percent
[31] = test system: SNB-75; experiment: NCI60 one-dose screen; conditions: Homo sapiens, SNB-75, read-out: Growth percent
[32] = test system: UACC-257; experiment: NCI60 one-dose screen; conditions: Homo sapiens, UACC-257, read-out: Growth percent
[33] = test system: OVCAR-4; experiment: NCI60 one-dose screen; conditions: Homo sapiens, OVCAR-4, read-out: Growth percent
[34] = test system: SK-OV-3; experiment: NCI60 one-dose screen; conditions: Homo sapiens, SK-OV-3, read-out: Growth percent
[35] = test system: TK-10; experiment: NCI60 one-dose screen; conditions: Homo sapiens, TK-10, read-out: Growth percent
[36] = read-out: GI50 Mean, mean over all 60 human cancer cell lines

Q: What does the source list for `CC[C@]12C=CCN3CC[C@@]4(c5ccc(OC)cc5N(C)[C@H]4[C@@](O)(C(=O)OC)[C@@H]1OC(=O)CCCC[P+](c1ccc(OC)cc1)(c1ccc(OC)cc1)c1ccc(OC)cc1)[C@@H]32` [10b]?
A: GI50 [1]: 675 nM; GI50 [2]: 428 nM; GI50 [3]: 2790 nM; GI50 [4]: 341 nM; GI50 [5]: 1300 nM; GI50 [6]: 1470 nM; GI50 [7]: 1970 nM; GI50 [8]: 392 nM; GI50 [9]: 1200 nM; GI50 [10]: 521 nM; GI50 [11]: 548 nM; GI50 [12]: 20500 nM; GI50 [13]: 1400 nM; GI50 [14]: 6280 nM; GI50 [15]: 1180 nM; GI50 [16]: 1670 nM; GI50 [17]: 562 nM; GI50 [18]: 1360 nM; GI50 [19]: 1880 nM; GI50 [20]: 980 nM; GI50 [21]: 8280 nM; GI50 ([22]; 60 cell, read-out: Mean GI50, mean over all 60 cell lines): < 3000 nM; GI50 [22, 36]: 2200 nM; activity at 10 µM [23]: -59.1%; activity at 10 µM [24]: 1.01%; activity at 10 µM [25]: -83.7%; activity at 10 µM [26]: -81.9%; activity at 10 µM [27]: -88.4%; activity at 10 µM [28]: -68.8%; activity at 10 µM [29]: -88.7%; activity at 10 µM [30]: -97.5%; activity at 10 µM [31]: -95.4%; activity at 10 µM [32]: -93.4%; activity at 10 µM [33]: -37.7%; activity at 10 µM [34]: -82.5%; activity at 10 µM [35]: -88.2%

Q: `CC[C@]12C=CCN3CC[C@@]4(c5ccc(OC)cc5N(C)[C@H]4[C@@](O)(C(=O)OC)[C@@H]1OC(=O)CCCC[P+](C1CCCCC1)(C1CCCCC1)C1CCCCC1)[C@@H]32` [10d] was tested. Which GI50 [1] did it give?
A: 983 nM

Q: And the GI50 [2]?
A: 1390 nM

Q: What about the GI50 [3] of the same compound?
A: 5300 nM

Q: And the GI50 [4]?
A: 642 nM

Q: What about the GI50 [5] of the same compound?
A: 2940 nM

Q: And the GI50 [6]?
A: 3170 nM

Q: What about the GI50 [7] of the same compound?
A: 4400 nM

Q: And the GI50 [8]?
A: 640 nM

Q: And the GI50 [9]?
A: 2200 nM

Q: What about the GI50 [10] of the same compound?
A: 2620 nM

Q: What about the GI50 [11] of the same compound?
A: 1360 nM

Q: What about the GI50 [12] of the same compound?
A: 65500 nM

Q: What about the GI50 [13] of the same compound?
A: 2280 nM

Q: And the GI50 [14]?
A: 16000 nM

Q: What about the GI50 [15] of the same compound?
A: 2770 nM

Q: What about the GI50 [16] of the same compound?
A: 3080 nM

Q: And the GI50 [17]?
A: 1460 nM

Q: And the GI50 [18]?
A: 2950 nM

Q: What about the GI50 [19] of the same compound?
A: 3800 nM

Q: What about the GI50 [20] of the same compound?
A: 1960 nM

Q: And the GI50 [21]?
A: 2560 nM

Q: What about the GI50 [22, 36] of the same compound?
A: 4290 nM

Q: What about the activity at 10 µM [23] of the same compound?
A: -60.2%

Q: What about the activity at 10 µM [24] of the same compound?
A: 7.48%

Q: And the activity at 10 µM [25]?
A: 11.7%

Q: What about the activity at 10 µM [26] of the same compound?
A: -71.8%

Q: What about the activity at 10 µM [27] of the same compound?
A: -87.8%

Q: And the activity at 10 µM [28]?
A: -71.1%

Q: And the activity at 10 µM [29]?
A: 2.08%

Q: What about the activity at 10 µM [30] of the same compound?
A: -93.9%

Q: And the activity at 10 µM [31]?
A: -81.4%

Q: What about the activity at 10 µM [32] of the same compound?
A: -82.1%

Q: What about the activity at 10 µM [33] of the same compound?
A: 12.4%

Q: And the activity at 10 µM [34]?
A: -22.2%

Q: And the activity at 10 µM [35]?
A: -64.1%
